Experimental data: article PMC9319939, “Siccanin Is a Dual-Target Inhibitor of Plasmodium falciparum Mitochondrial Complex II and Complex III” (Pharmaceuticals, 2022)

Experiments:
[1] = target: mammalian complex I and III (Sus scrofa, UniProt F1RNZ1+P24964); assay: NADH-cytochrome c reductase activity in porcine mitochondria; assay type: biochemical
Description: Porcine mitochondria were prepared as described previously. NADH-cytochrome c (NADH-cyt c) activity was measured at 25 °C in 1 mL of the reaction mixture containing 1 mM MgCl2, 2 mM KCN, and 20 μM cytochrome c in 30 mM potassium phosphate buffer, pH 7.5. Activity was measured by recording the absorbance change of cytochrome c at 550 nm after the reaction was initiated by the addition of 20 μM NADH. Various concentrations of siccanin dissolved in DMSO were added to reaction mixtures 5 min before the initiation of the reactions. Selectivity was calculated as the ratio of mammalian to P. falciparum IC50s.

[2] = target: T1, dihydroorotate dehydrogenase (DHODH) (Plasmodium falciparum, UniProt Q08210); assay: DHODH activity, crude mitochondrial fraction, DCIP reduction; assay type: biochemical
T1 construct: used as crude mitochondrial fraction for all enzymatic assays; endogenous in cells; host or cells: P. falciparum 3D7 trophozoite-stage parasites, crude mitochondrial fraction
T1 sequence (Q08210 24-569): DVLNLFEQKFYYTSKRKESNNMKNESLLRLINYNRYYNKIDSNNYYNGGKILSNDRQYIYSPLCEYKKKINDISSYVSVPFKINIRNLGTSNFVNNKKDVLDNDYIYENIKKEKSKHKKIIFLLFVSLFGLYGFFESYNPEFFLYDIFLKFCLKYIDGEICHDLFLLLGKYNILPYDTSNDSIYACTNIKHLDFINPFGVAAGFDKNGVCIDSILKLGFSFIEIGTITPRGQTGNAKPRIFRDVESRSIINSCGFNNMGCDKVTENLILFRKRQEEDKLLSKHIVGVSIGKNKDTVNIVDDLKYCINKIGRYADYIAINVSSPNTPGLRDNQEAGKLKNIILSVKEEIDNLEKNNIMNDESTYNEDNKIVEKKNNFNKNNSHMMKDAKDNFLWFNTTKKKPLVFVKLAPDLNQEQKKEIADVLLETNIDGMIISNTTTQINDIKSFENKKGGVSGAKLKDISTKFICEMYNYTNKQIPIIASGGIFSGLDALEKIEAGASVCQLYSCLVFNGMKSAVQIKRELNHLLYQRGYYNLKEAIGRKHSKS
Description: A synchronized parasite culture was grown for 64 h and a crude mitochondrial fraction was prepared from trophozoite-stage cells (as confirmed by Giemsa staining). Infected red blood cells were collected by centrifugation at 800× g for 5 min at 4 °C and incubated for 5 min at room temperature with 40 mL of 0.075% (w/v) saponin in AIM buffer (120 mM KCl, 20 mM NaCl, 10 mM PIPES (1,4-piperazinediethanesulfonic acid) buffer [pH 6.7], 1 mM MgCl2, 5 mM glucose). Released parasites were collected by centrifugation at 2780× g for 7 min at 4 °C and washed three times with AIM buffer. P. falciparum was suspended in MSE buffer [225 mM mannitol, 75 mM sucrose, 0.1 mM ethylenediaminetetraacetic acid (EDTA), 3 mM Tris-HCl buffer, pH 7.4] containing 1 mM phenylmethylsulphonyl fluoride, and disrupted by nitrogen cavitation at 1200 psi using a 4639 Cell Disruption Bomb (Parr Instrument Company; Moline, IL, USA). The unbroken cells and cell debris were removed by centrifugation at 800× g for 5 min at 4 °C. The supernatant was centrifuged at 5000× g for 20 min at 4 °C. […]
(§1) Complex II, DHODH, MQO, NDH2, G3PDH, and dihydroorotate-cytochrome c (DHO-cyt c) reductase activities were measured, as described previously, using a V-660 spectrophotometer (JASCO; Tokyo, Japan). Briefly, complex II activity was measured at 25 °C in a 1 mL reaction mixture containing 45 μM 2,6-dichlorophenolidophenol (DCIP), 100 μM ubiquinone-2 (UQ2), and 2 mM KCN in 50 mM potassium phosphate buffer, pH 8.0. DHODH, MQO, and G3PDH activities were measured at 25 °C in 1 mL of the reaction mixture containing 45 μM DCIP, 100 μM UQ2, and 2 mM KCN in 30 mM Tris-HCl buffer, pH 8.0. Complex II, DHODH, MQO, and G3PDH activities were measured by monitoring the change in absorbance at 600 nm (reflecting DCIP reduction) after the reaction was initiated by adding 10 mM succinate, 500 μM dihydroorotate, 10 mM malate, or 500 μM glycerol-3-phosphate, respectively. NDH2 activity was measured at 25 °C in 1 mL of the reaction mixture containing 100 µM UQ1 and 2 mM KCN in 50 mM potassium phosphate buffer, pH 8.0. […]

[3] = test system: glycerol-3-phosphate dehydrogenase (G3PDH); assay: G3PDH activity, crude mitochondrial fraction, DCIP reduction; assay type: biochemical, Plasmodium falciparum
Description: A synchronized parasite culture was grown for 64 h and a crude mitochondrial fraction was prepared from trophozoite-stage cells (as confirmed by Giemsa staining). Infected red blood cells were collected by centrifugation at 800× g for 5 min at 4 °C and incubated for 5 min at room temperature with 40 mL of 0.075% (w/v) saponin in AIM buffer (120 mM KCl, 20 mM NaCl, 10 mM PIPES (1,4-piperazinediethanesulfonic acid) buffer [pH 6.7], 1 mM MgCl2, 5 mM glucose). Released parasites were collected by centrifugation at 2780× g for 7 min at 4 °C and washed three times with AIM buffer. […]
as §1, with “Complex II, DHODH, MQO, and G3PDH activities were measured by monitoring the change in absorbance at 600 nm (reflecting DCIP reduction) after the reaction was initiated by adding 10 mM succinate, 500 μM dihydroorotate, 10 mM malate, or 500 μM glycerol-3-phosphate, respectively.” left out

mammalian complex I and III, sequence (F1RNZ1 entry or part of it): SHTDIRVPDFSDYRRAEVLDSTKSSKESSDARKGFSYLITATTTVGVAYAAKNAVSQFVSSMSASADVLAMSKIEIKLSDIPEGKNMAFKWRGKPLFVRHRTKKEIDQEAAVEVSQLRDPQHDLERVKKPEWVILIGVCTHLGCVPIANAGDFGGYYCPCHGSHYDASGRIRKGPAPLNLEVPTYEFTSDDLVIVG
mammalian complex I and III, sequence (P24964 whole entry): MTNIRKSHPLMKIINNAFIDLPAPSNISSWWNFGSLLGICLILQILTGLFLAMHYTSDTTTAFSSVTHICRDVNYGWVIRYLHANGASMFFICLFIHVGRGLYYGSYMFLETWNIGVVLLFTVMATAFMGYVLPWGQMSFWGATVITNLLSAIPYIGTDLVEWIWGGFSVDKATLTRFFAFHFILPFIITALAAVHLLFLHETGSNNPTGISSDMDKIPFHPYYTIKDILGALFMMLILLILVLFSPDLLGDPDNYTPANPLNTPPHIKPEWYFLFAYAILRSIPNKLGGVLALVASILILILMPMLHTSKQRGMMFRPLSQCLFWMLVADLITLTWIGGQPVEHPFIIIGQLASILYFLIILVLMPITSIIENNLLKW
mammalian complex I and III, sequence (F1SKM0 entry or part of it, further chain): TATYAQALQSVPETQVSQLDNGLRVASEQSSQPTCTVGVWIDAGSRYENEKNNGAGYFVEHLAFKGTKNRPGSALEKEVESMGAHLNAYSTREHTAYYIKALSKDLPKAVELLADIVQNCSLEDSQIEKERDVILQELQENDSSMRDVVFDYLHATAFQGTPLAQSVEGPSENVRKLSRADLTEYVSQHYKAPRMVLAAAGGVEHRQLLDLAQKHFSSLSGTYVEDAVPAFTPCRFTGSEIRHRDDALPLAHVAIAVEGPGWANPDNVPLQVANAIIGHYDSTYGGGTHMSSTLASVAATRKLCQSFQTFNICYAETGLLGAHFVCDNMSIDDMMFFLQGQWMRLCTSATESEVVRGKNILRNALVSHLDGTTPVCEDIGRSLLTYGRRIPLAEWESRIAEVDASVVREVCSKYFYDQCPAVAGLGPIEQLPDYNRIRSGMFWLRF

Structure (SMILES): Cc1cc(O)c2c(c1)O[C@@]1(C)CC[C@H]3C(C)(C)CCC[C@]34CO[C@@H]2[C@H]41 [Siccanin]
- Effect on mammalian complex I and III ([1]; concentrations as high as 500 µM): did not inhibit
- IC50 ([1]; read-out: Siccanin IC50, Mammal, Complex III, NADH-cytochrome c reductase, porcine mitochondria): > 500 µM
- Effect on DHODH activity ([2]; 10 µM): did not inhibit
- Effect on DHODH activity ([2]; 60 μM): does not inhibit
- remaining activity at 10 µM ([2]; siccanin 10 μM, read-out: Relative residual activity of DHODH): 101 ± 8.1%
- Effect on G3PDH activity ([3]; 10 µM): weakly inhibited
- Relative residual activity of G3PDH ([3]; siccanin 10 μM): 72.5 ± 4.0%
